ChEMBL document CHEMBL1159040, “Synthesis and evaluation of phenylequine for antimalarial activity in vitro and in vivo” (Bioorg Med Chem Lett, 2010)

What was measured:
Plasmodium falciparum [1] = experiment: Antiplasmodial activity against chloroquine-resistant Plasmodium falciparum K1 infected in human O+ erythrocytes by parasite LDH assay; type: functional, organism-based
KB = experiment: Cytotoxicity against human KB cells; type: cell-based
Plasmodium falciparum [2] = experiment: Antiplasmodial activity against chloroquine-sensitive Plasmodium falciparum D10 infected in human O+ RBC by parasite LDH assay; type: functional, organism-based
Plasmodium berghei [3] = experiment: Antiplasmodial activity in chloroquine-sensitive Plasmodium berghei ANKA infected BALB/c mice (Mus musculus) assessed as inhibition of parasitemia at 10 mg/kg, intraperitoneally daily once for 4 days; type: functional; settings: ip, 96 h, route intraperitoneal
Plasmodium yoelii [4] = experiment: Antiplasmodial activity in chloroquine-nonsensitive Plasmodium yoelii infected BALB/c mice (Mus musculus) assessed as inhibition of parasitaemia at 3 mg/kg, intraperitoneally daily once for 4 days; type: functional; settings: route intraperitoneal
Plasmodium yoelii [5] = experiment: Antiplasmodial activity in chloroquine-nonsensitive Plasmodium yoelii infected BALB/c mice (Mus musculus) assessed as inhibition of parasitaemia at 10 mg/kg, intraperitoneally daily once for 4 days; type: functional; settings: ip, 96 h, route intraperitoneal
Plasmodium yoelii [6] = experiment: Antiplasmodial activity in chloroquine-nonsensitive Plasmodium yoelii infected BALB/c mice (Mus musculus) assessed as inhibition of parasitaemia at 1 mg/kg, intraperitoneally daily once for 4 days; type: functional; settings: ip, 96 h, route intraperitoneal
Plasmodium berghei [7] = experiment: Antiplasmodial activity in chloroquine-sensitive Plasmodium berghei ANKA infected BALB/c mice (Mus musculus) assessed as mean parasitemia at 10 mg/kg, intraperitoneally daily once for 4 days; type: functional; settings: route intraperitoneal
Plasmodium yoelii [8] = experiment: Antiplasmodial activity in chloroquine-nonsensitive Plasmodium yoelii infected BALB/c mice (Mus musculus) assessed as inhibition of parasitaemia at 30 mg/kg, intraperitoneally daily once for 4 days; type: functional; settings: route intraperitoneal
Plasmodium berghei [9] = experiment: Antiplasmodial activity in chloroquine-sensitive Plasmodium berghei ANKA infected BALB/c mice (Mus musculus) assessed as mean parasitemia at 30 mg/kg, intraperitoneally daily once for 4 days; type: functional; settings: route intraperitoneal
Plasmodium berghei [10] = experiment: Antiplasmodial activity in chloroquine-sensitive Plasmodium berghei ANKA infected BALB/c mice (Mus musculus) assessed as inhibition of parasitemia at 30 mg/kg, intraperitoneally daily once for 4 days; type: functional; settings: route intraperitoneal

CN(C)Cc1ccccc1CNc1ccnc2ccccc12
IC50 (Plasmodium falciparum [1]): 0.0703 µM | Activity (KB): 8.5 µM | IC50 (Plasmodium falciparum [2]): 0.106 µM

CN(C)Cc1ccccc1CNCCNc1ccnc2cc(Cl)ccc12
IC50 (Plasmodium falciparum [1]): 0.0098 µM | Activity (KB): 14 µM | IC50 (Plasmodium falciparum [2]): 0.0195 µM

CCN(CC)CCCC(C)Nc1ccnc2cc(Cl)ccc12.O=P(O)(O)O.O=P(O)(O)O (stereo not drawn) [CHLOROQUINE PHOSPHATE]
inhibition in vivo at 10 mg/kg (Plasmodium berghei [3]): 100% | inhibition in vivo at 3 mg/kg (Plasmodium yoelii [4]; Plasmodium yoelii, ip, 96 h): 32.7% | inhibition in vivo at 10 mg/kg (Plasmodium yoelii [5]): 98.1% | inhibition in vivo at 1 mg/kg (Plasmodium yoelii [6]): 32.7% | Activity (Plasmodium berghei [7]): 0%

CN(C)Cc1ccccc1CNc1ccnc2cc(Cl)ccc12.O=C(O)CC(O)(CC(=O)O)C(=O)O [PHENYLEQUINE DICITRATE]
inhibition (INH) (Plasmodium yoelii [8]): 99.6% | inhibition (INH) (Plasmodium yoelii [4]): 8.9%

CN(C)Cc1ccccc1CNc1ccnc2cc(Cl)ccc12.Cl.Cl [PHENYLEQUINE DIHYDROCHLORIDE]
inhibition in vivo at 30 mg/kg (Plasmodium yoelii [8]; Plasmodium yoelii, ip, 96 h): 99.5% | inhibition (INH) (Plasmodium yoelii [4]): 94.5% | Activity (Plasmodium berghei [9]): 0% | inhibition in vivo at 10 mg/kg (Plasmodium yoelii [5]): 99.7% | inhibition in vivo at 30 mg/kg (Plasmodium berghei [10]; Plasmodium berghei, ANKA, ip, 96 h): 100%

CN(C)Cc1ccccc1CNc1ccnc2cc(Cl)ccc12 [PHENYLEQUINE]
IC50 (Plasmodium falciparum [1]): 0.0069 µM | Activity (KB): 70 µM | Activity (Plasmodium berghei [9]): 0% | inhibition (INH) (Plasmodium berghei [10]): 100% | IC50 (Plasmodium falciparum [2]): 0.0132 µM
